Measurements published in ChEMBL document CHEMBL1201862, “PubChem BioAssay data set” (2004).
Active and inactive are the calls of the source.

Legend:
[1] = molecular target: Muscarinic acetylcholine receptor M1 (Rattus norvegicus, UniProt P08482); experiment: concentration-dependent potentiation of ACh at M1 – cell-based, calcium mobilization, CHO-K1, ACh EC20, dose response (AID 2425); format: functional
[2] = molecular target: Muscarinic acetylcholine receptor M3 (Homo sapiens, UniProt P20309); experiment: potentiation of ACh response at M3 – cell-based, CHO-K1 hM3, Fluo-4 calcium, ACh EC20, selectivity assay for M1 PAM project, dose response (AID 2428); format: functional
Chain of Muscarinic acetylcholine receptor M3 (P20309 whole entry): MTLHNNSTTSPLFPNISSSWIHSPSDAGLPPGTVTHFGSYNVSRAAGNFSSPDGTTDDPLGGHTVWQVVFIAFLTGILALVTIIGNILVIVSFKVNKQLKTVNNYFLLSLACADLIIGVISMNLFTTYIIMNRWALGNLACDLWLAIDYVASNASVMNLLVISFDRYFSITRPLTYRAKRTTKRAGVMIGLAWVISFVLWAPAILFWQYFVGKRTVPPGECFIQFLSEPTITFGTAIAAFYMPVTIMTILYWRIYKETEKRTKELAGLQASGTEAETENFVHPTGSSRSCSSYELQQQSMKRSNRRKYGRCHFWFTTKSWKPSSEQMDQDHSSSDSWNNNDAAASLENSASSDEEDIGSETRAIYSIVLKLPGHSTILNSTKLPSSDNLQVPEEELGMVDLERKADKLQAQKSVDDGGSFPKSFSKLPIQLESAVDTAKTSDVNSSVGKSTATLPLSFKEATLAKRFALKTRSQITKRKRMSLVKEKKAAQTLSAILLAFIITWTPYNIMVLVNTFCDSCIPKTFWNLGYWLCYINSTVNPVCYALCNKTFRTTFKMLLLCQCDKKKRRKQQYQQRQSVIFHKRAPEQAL

[3] = molecular target: Muscarinic acetylcholine receptor M4 (Rattus norvegicus, UniProt P08485); experiment: potentiation of ACh calcium response at rM4 – cell-based, CHO-K1 rat M4/Gqi5, Fluo-4 calcium, ACh EC20, selectivity assay for M1 muscarinic PAM project, dose response (AID 2438); format: functional
Chain of Muscarinic acetylcholine receptor M4 (P08485 whole entry): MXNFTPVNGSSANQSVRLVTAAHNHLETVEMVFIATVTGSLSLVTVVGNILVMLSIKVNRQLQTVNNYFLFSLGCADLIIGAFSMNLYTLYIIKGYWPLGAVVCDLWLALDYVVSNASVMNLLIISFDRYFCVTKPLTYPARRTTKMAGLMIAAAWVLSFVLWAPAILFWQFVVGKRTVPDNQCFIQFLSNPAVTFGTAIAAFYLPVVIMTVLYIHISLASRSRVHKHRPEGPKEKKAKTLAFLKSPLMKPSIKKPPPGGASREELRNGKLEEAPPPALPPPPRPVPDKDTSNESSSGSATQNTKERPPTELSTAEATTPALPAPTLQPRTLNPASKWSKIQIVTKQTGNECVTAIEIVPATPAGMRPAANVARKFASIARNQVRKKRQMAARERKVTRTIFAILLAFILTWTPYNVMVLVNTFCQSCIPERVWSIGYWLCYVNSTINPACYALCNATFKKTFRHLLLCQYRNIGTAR

[4] = molecular target: T1, NADPH oxidase 1 (Homo sapiens, UniProt Q9Y5S8); experiment: Luminescence-based cell-based dose response assay to identify inhibitors of NADPH oxidase 1 (NOX1).; format: functional
T1 sequence (Q9Y5S8 whole entry): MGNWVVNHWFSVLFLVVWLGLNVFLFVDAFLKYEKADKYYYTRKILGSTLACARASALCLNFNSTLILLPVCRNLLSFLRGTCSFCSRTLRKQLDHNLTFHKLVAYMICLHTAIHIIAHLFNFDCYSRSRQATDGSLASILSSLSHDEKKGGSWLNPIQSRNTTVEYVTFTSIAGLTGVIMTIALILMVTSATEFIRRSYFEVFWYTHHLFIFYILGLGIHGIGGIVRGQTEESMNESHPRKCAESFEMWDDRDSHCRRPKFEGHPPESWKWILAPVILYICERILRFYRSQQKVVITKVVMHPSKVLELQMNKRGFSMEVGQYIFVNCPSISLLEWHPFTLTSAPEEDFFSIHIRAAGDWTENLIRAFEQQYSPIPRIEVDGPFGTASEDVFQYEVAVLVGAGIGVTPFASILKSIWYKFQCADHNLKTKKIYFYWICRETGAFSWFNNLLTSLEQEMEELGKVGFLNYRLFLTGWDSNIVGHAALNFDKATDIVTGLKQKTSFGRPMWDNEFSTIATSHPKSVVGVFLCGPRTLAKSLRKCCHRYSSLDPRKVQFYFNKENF

[5] = molecular target: Induced myeloid leukemia cell differentiation protein Mcl-1 (Homo sapiens, UniProt Q07820); format: functional
Chain of Induced myeloid leukemia cell differentiation protein Mcl-1 (Q07820 whole entry): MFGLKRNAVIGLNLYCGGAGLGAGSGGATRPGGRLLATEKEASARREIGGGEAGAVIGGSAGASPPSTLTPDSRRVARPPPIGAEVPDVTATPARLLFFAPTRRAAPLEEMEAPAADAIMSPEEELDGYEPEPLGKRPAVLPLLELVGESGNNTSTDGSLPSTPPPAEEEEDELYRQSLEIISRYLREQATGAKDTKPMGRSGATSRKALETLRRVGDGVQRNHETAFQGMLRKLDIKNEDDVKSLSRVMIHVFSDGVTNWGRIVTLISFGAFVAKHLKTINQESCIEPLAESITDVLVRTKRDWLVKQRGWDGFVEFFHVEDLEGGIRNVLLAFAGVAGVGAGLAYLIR

[6] = molecular target: Epstein-Barr nuclear antigen 1 (Epstein-Barr virus (strain B95-8) (HHV-4) (Human herpesvirus 4), UniProt P03211); experiment: inhibition of EBV nuclear antigen 1 DNA binding – biochemical, fluorescence polarization, 1536-well, dose response (AID 2381); design: species or system human gammaherpesvirus 4;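 further: fluorescence polarization of a Cy5 DNA probe bound by EBNA-1 protein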
Chain of Epstein-Barr nuclear antigen 1 (P03211 whole entry): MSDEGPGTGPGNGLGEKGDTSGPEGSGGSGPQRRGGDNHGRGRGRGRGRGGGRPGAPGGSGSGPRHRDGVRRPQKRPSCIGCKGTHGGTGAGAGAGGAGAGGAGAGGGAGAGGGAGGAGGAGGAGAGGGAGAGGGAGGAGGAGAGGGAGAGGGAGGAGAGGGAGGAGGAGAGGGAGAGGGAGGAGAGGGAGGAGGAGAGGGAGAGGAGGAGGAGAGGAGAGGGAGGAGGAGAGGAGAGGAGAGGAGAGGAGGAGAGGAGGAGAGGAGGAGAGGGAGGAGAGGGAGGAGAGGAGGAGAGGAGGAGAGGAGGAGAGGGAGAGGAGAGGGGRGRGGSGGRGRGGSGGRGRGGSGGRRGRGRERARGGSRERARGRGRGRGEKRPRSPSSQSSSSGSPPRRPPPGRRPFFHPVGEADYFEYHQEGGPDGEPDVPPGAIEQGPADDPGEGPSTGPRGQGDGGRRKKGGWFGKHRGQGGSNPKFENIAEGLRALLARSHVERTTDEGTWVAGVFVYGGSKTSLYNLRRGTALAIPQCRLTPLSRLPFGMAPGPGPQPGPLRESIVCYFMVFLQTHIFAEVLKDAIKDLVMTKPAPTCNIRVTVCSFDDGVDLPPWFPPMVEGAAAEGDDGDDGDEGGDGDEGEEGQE

[7] = molecular target: Lytic switch protein BZLF1 (Epstein-Barr virus (strain B95-8) (HHV-4) (Human herpesvirus 4), UniProt P03206); experiment: inhibition of BZLF1 ZTA DNA binding – biochemical, fluorescence polarization, Epstein-Barr virus, 1536-well, counter-screen for EBNA-1 inhibitor project, dose response (AID 2377); design: species or system human gammaherpesvirus 4;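 further: fluorescence polarization of Cy5-labelled ZRE DNA probe bound by purified Zta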
Chain of Lytic switch protein BZLF1 (P03206 whole entry): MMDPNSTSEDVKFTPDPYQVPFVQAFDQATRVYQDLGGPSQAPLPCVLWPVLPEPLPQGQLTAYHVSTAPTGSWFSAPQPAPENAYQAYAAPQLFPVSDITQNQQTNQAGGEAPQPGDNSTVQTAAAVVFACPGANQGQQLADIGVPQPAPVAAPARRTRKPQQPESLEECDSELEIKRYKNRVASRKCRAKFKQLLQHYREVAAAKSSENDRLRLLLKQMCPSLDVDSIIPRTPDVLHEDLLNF

[8] = molecular target: T2, Neuropeptide Y receptor type 1 (Homo sapiens, UniProt P25929); experiment: Fluorescence-based counterscreen for potentiators or agonists of NPY-Y2: cell-based high-throughput dose response assay for potentiators or agonists of NPY-Y1.; format: functional
T2 sequence (P25929 whole entry): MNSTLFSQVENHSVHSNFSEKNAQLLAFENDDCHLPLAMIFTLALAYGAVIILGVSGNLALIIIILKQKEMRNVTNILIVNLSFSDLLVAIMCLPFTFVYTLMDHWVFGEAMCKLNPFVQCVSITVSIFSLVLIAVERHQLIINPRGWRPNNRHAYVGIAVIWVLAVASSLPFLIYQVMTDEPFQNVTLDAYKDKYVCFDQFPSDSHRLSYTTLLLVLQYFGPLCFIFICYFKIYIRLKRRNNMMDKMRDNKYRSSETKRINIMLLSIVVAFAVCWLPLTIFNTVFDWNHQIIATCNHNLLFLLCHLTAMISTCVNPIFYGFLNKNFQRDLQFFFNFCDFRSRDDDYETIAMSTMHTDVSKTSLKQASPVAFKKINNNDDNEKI

[9] = Luminescent dose response cell-based high throughput screening assay for inhibitors of the Janus kinase 2 mutant JAK2V617F. [Related pubchem assays: 1446 (Primary screen.), 1521 (Confirmation assay.), 1486 (Counter screen.)]; format: functional
[10] = NIH-3T3 fibroblast cytotoxicity, dose response, cytotoxicity control, cell-based, fluorescence, Alamar Blue, secondary assay (AID 2327); format: functional;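 further: NIH-3T3 mouse fibroblasts cultured with fluconazole at 8 µg/mL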
[11] = molecular target: T3, RNA-binding protein pos-1 (Caenorhabditis elegans, UniProt G5EF15); experiment: disruptors of C. elegans POS-1 RNA interaction – biochemical, fluorescence polarization, dose response (AID 1964);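 further: purified POS-1 fused to maltose binding protein made in E. coli; potency of compounds blocking POS-1 binding to fluorescent RNA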
T3 sequence (G5EF15 whole entry): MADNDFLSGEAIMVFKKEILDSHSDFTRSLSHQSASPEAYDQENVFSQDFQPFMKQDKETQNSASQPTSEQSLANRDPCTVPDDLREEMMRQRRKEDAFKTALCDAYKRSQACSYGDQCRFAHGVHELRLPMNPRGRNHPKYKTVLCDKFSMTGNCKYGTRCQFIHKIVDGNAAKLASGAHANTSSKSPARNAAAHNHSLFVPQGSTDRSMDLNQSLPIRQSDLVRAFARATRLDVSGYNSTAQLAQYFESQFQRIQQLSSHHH

[12] = test system: HEK293; experiment: Fluorescence-based counterscreen for potentiators or agonists of NPY-Y2: cell-based high-throughput dose response assay to identify inhibitors of cyclic nucleotide gated ion channel (CNGC) activity. In this assay, the parental HEK293 cell line transfected with a cyclic-nucleotide gated ion channel (CNGC)-based cAMP sensor is used to measure inhibition of isoproterenol-induced CNGC activity by test compound.; format: functional; conditions: Homo sapiens;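 further: stimulus is 1 µM isoproterenol at EC100 plus PDE inhibitor Ro 20-1724 at 25 µM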
[13] = molecular target: T4, Neuropeptide Y receptor type 2 (Homo sapiens, UniProt P49146); experiment: Fluorescence-based cell-based high-throughput dose response assay for agonists of NPY-Y2. [Related pubchem assays: 1703 (Screening assay (CNGC inhibitors).), 1359 (Screening assay (NPY-Y2 potentiators or agonists).), 1304 (Screening assay (NPY-Y1 potentiators or agonists).), 1710 (Screening assay (NPY-Y2 agonists).), 1791 (Summary AID.)]; format: functional
T4 sequence (P49146 whole entry): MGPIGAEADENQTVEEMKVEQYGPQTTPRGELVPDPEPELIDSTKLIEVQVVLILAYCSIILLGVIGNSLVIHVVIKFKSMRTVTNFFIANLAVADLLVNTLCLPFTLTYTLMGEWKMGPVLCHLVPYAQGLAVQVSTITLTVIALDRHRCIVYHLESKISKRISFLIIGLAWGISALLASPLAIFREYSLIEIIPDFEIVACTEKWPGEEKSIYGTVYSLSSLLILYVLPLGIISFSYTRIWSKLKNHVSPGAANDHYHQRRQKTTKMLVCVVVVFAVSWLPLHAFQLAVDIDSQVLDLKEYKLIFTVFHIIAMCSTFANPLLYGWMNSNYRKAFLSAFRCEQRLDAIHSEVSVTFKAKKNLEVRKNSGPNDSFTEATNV

[14] = molecular target: T5, Zinc finger protein mex-5 (Caenorhabditis elegans, UniProt Q9XUB2); experiment: potency of MEX-5 RNA-binding blockers – biochemical, C. elegans, fluorescence polarization, dose response (AID 1960)
T5 sequence (Q9XUB2 whole entry): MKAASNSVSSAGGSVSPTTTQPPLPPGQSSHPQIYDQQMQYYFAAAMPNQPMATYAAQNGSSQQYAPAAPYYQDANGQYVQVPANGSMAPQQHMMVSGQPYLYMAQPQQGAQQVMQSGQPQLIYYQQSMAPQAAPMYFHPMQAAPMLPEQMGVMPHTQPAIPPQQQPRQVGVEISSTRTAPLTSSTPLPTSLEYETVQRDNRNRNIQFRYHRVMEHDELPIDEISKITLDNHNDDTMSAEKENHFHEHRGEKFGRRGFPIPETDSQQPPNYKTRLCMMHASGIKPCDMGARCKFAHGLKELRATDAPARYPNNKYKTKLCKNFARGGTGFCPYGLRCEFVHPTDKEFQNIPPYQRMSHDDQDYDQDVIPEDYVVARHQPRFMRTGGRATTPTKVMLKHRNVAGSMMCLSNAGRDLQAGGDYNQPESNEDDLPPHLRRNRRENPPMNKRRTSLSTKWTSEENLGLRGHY

[15] = fluconazole-exposed Candida albicans growth modulators – fluorescence, retest, confirmation (AID 2467); format: functional, cell-based
[16] = molecular target: T4, Neuropeptide Y receptor type 2; experiment: Fluorescence-based cell-based high-throughput dose response assay for potentiators or agonists of NPY-Y2. [Related pubchem assays: 1539 (Screening assay (NPY-Y2 potentiators or agonists).), 1703 (Screening assay (CNGC inhibitors).), 1359 (Screening assay (NPY-Y2 potentiators or agonists).), 1304 (Screening assay (NPY-Y1 potentiators or agonists).) …; format: functional
[17] = molecular target: T2, Neuropeptide Y receptor type 1; experiment: Fluorescence-based counterscreen for agonists of NPY-Y2: cell-based high-throughput dose response assay for agonists of NPY-Y1.; format: functional
[18] = molecular target: Nonstructural protein 1 (Influenza A virus, UniProt Q194T2); format: functional, Influenza A virus (A/California/07/2009(H1N1))
Chain of Nonstructural protein 1 (Q194T2 whole entry): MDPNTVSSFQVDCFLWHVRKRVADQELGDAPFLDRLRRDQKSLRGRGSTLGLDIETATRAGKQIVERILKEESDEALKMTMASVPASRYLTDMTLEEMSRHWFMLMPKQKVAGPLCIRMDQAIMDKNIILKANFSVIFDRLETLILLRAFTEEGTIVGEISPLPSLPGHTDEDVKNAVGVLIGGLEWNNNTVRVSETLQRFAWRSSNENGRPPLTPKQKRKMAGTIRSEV

[19] = molecular target: T6, Histone-lysine N-methyltransferase NSD2 (Homo sapiens, UniProt O96028); format: biochemical
T6 sequence (O96028 whole entry): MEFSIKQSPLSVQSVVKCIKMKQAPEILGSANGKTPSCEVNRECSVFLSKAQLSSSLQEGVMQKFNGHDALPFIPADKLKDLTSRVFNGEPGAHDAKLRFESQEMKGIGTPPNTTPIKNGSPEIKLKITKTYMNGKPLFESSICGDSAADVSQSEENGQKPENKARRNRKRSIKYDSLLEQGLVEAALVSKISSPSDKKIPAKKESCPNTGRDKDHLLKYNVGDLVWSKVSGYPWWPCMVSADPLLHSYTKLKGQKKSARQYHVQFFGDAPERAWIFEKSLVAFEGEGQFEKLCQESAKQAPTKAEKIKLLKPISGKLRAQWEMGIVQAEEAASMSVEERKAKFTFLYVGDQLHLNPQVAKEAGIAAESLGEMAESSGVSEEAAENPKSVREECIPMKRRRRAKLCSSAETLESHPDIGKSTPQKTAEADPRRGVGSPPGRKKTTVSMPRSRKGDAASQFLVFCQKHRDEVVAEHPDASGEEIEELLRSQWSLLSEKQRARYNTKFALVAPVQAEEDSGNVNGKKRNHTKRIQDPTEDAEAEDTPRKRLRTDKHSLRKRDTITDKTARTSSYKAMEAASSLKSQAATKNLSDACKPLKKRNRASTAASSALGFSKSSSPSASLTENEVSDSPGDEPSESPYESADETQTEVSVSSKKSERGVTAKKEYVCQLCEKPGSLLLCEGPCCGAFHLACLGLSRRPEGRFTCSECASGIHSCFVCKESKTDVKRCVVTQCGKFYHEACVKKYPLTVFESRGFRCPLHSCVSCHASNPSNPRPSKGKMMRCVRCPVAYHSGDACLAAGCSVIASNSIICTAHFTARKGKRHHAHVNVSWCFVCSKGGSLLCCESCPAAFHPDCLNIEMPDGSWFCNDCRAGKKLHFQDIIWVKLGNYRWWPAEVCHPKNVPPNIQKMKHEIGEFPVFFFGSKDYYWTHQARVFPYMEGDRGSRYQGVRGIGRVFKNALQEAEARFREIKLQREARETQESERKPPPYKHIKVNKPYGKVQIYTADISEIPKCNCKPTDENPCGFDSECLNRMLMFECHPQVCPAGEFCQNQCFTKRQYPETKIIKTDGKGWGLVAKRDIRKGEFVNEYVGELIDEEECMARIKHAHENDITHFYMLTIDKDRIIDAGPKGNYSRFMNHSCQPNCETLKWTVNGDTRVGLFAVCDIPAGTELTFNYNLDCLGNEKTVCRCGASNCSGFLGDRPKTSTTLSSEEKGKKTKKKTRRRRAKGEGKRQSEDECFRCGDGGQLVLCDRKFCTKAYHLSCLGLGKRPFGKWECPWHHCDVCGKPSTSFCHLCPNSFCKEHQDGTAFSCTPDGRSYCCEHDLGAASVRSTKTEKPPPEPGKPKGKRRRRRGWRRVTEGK

[20] = molecular target: Estrogen receptor (Homo sapiens, UniProt P03372); experiment: ERα coactivator recruitment enhancers – biochemical, TR-FRET, ERα LBD, dose response (AID 737)
Chain of Estrogen receptor (P03372 whole entry, the tested form may be a part): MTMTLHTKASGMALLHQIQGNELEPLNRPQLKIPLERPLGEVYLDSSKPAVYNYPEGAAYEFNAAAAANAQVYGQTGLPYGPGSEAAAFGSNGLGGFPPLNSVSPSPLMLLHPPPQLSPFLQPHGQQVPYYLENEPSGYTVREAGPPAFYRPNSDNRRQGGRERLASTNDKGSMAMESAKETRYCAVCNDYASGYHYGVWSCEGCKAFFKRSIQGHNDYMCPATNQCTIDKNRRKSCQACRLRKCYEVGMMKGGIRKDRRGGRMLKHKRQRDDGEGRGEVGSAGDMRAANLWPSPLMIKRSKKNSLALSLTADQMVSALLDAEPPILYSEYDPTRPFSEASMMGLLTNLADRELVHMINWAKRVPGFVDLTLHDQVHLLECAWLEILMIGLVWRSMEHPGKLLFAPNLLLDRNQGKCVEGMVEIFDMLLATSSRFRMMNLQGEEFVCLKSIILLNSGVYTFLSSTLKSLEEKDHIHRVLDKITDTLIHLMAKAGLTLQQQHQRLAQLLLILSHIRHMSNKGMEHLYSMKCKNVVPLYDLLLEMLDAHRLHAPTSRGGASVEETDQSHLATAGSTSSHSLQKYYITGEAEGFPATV

[21] = molecular target: T1, NADPH oxidase 1; format: functional, cell-based
[22] = molecular target: T2, Neuropeptide Y receptor type 1; format: functional
[23] = molecular target: T4, Neuropeptide Y receptor type 2; format: functional, cell-based

Chain of Muscarinic acetylcholine receptor M1 (P08482 whole entry): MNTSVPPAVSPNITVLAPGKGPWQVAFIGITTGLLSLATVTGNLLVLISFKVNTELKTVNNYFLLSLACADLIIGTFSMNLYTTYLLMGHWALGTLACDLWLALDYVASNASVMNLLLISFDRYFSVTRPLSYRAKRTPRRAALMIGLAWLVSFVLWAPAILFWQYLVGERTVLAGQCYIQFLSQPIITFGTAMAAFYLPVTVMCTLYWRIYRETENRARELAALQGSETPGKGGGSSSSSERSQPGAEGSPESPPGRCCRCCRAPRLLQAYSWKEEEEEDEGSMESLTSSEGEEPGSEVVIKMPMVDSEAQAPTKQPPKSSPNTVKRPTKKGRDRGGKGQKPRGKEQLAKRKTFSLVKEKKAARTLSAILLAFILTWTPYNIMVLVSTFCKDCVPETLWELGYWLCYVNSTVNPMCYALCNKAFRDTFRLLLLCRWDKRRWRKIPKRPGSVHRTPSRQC

Cn1cc(-c2ccc(CN3C(=O)C(=O)c4ccccc43)cc2)cn1
EC50 [1]: 2.42 µM (active)
EC50 [2]: 2.71 µM (active)
EC50 [3]: 2.71 µM (active)

CCN(CC)c1ccc(NC(=O)Nc2ccc(C(C)=O)cc2)cc1
IC50 [4]: 0.252 µM (active)
IC50 [5]: 4.48 µM (not active)

CC(=O)Nc1ccc(S(=O)(=O)N2CCN(Cc3nc(O)c4c(C)c(C)sc4n3)CC2)cc1
IC50 [6]: > 148 µM (not active)
IC50 [7]: > 111 µM (not active)

O=C1/C(=C/c2ccc(O)c(O)c2)SC(=S)N1Nc1ccccc1
EC50 [8]: > 35.4 µM (not active)
IC50 [9]: 1.53 µM (active)
EC50 [10]: 41.6 µM (active)
EC50 [11]: 39.2 µM (active)
EC50 [12]: > 35.4 µM (not active)
EC50 [13]: > 35.4 µM (not active)
EC50 [14]: 16.2 µM (active)
EC50 [15]: > 38 µM (not active)
EC50 [16]: 26.6 µM (not active)
EC50 [17]: > 11.8 µM (not active)
IC50 [18]: 31.6 µM (active)
AC50 [19]: 1.49 µM (active)

Cc1ccc(CN(Cc2cc3cc(C)ccc3[nH]c2=O)C(=O)N2CCOCC2)cc1
EC50 [20]: 12.6 µM (not active)

COc1ccccc1OC(=O)c1cc2ccccc2s1
IC50 [21]: > 17 µM (not active)

CCCCC(=O)N/N=C/c1ccc(N2CCOCC2)c([N+](=O)[O-])c1
IC50 [22]: 26.7 µM (not active)
IC50 [23]: 16.3 µM (not active)
